Test results: patent publication US20250108036A1, “COMPOSITIONS FOR REMOVING SENESCENT CELLS AND USES THEREOF” (LIFECEUTIX CO., LTD., priority 2021, published 2025)
Where two headings read alike, the source gives them in different places.

Legend:
Assay type in all cases: cell-based, human
HMGN1 [1] = assay: HMGN1 ELISA in culture medium of foreskin cells (Examples 10, 11; Tables 62, 63, 64); details: Homo sapiens; for activity at 90 µM: 90 μM test compound; for activity at 30 µM: read-out: HMGN1
[2] = system: foreskin cells in which senescence was induced by doxorubicin; assay: CellTiter-Glo cell viability of doxorubicin-induced senescent foreskin cells (Examples 1-2, 10, 11, 13; Tables 4, 63, 65); details: Homo sapiens, 72 h, read-out: Survival (%); for viability at 30 µM: 30 μM test compound; for viability at 90 µM: 90 μM test compound; for viability at […]: […] test compound
Protocol: After 3 days, cell viability was measured using CellTiter-Glo Luminescent Cell Viability Assay (Promega) or light microscopy.

A549 = assay: CellTiter-Glo cell viability of senescent A549 cancer cells (Example 12, Table 67); details: Homo sapiens; for viability at 90 µM: 90 μM test compound
HMGN1 [3] = assay: HMGN1 ELISA in culture medium of A549 cancer cells (Example 12, Table 66); details: Homo sapiens; for activity at 90 µM: test compound 90 μM
[4] = doxorubicin-treated foreskin cells, DMSO = 100
[5] = 1.1 μM test compound, doxorubicin-induced senescent foreskin cells, CellTiter-Glo, 0 μM = 100
[6] = 10 μM test compound, doxorubicin-induced senescent foreskin cells, CellTiter-Glo, 0 μM = 100
[7] = doxorubicin-induced senescent foreskin cells, CellTiter-Glo, 0 μM = 100
[8] = A549, doxorubicin-induced senescent A549 cancer cells, 1.1 μM test compound, CellTiter-Glo, read-out: Survival (%)
[9] = A549, doxorubicin-induced senescent A549 cancer cells, 10 μM test compound, CellTiter-Glo, read-out: Survival (%)
[10] = A549, doxorubicin-induced senescent A549 cancer cells, 30 μM test compound, CellTiter-Glo, read-out: Survival (%)
[11] = A549, doxorubicin-induced senescent A549 cancer cells, CellTiter-Glo, read-out: Survival (%)
[12] = A549, doxorubicin-induced senescent A549 cells, ELISA, DMSO = 100, read-out: HMGN1 (amount of HMGN1 secreted in the cell culture)
[13] = 30 μM test compound, doxorubicin-treated foreskin cells, DMSO = 100
[14] = A549, doxorubicin-induced senescent A549 cells, test compound 30 μM, ELISA, DMSO = 100, read-out: HMGN1 (amount of HMGN1 secreted in the cell culture)
[15] = A549, read-out: HMGN1 (amount of HMGN1 secreted in the cell culture)

| Compound | viability at 1.1 µM [2, 5] [%] | viability at 10 µM [2, 6] [%] | viability at 30 µM [2, 7] [%] | viability at […] [2, 7] [%] | viability at 1.1 µM (A549; [8]) [%] | viability at 10 µM (A549; [9]) [%] | viability at 30 µM (A549; [10]) [%] | activity at 30 µM (HMGN1 [1]; [13]) [%] | activity at 30 µM (HMGN1 [3]; [14]) [%] | also measured |
| --- | --- | --- | --- | --- | --- | --- | --- | --- | --- | --- |
| CN(C)c1nc(N(C)C)nc(N(C)C)n1 [LX-501, Altretamine, reference compound] | 103 | 98.9 | 85.2 | 105 | 99.8 | 103 | 99.5 | – | – | activity at 90 µM (HMGN1 [1]; [4]): 168%; viability at 90 µM [2, 7]: 53.7%; viability at 90 µM (A549; [11]): 13.1%; activity at 90 µM (HMGN1 [3]; [12]): 233% |
| O=C(O)Cn1nnc(-c2cc(N3CCC(Oc4cc(F)ccc4Br)CC3)no2)n1 [LX-309] | 52.3 | 4.3 | – | 12.5 | 100 | 92.3 | 28.1 | 283 | 254 | – |
| Cc1c(-c2ccc(-c3ccccc3F)cc2)nc2ccc(F)cc2c1C(=O)O [LX-1602, Brequinar, reference compound] | 109 | 57.7 | 36.4 | 93.8 | 94.3 | 96.5 | 39.8 | 228 | 197 | – |
| C[C@@H]1C(=O)C(C#N)=C[C@]2(C)C3=CC(=O)[C@@H]4[C@@H]5CC(C)(C)CC[C@]5(NC(=O)C(C)(F)F)CC[C@@]4(C)[C@]3(C)CC[C@@H]12 [LX-2201] | 9.8 | – | – | – | 28.4 | – | – | 318 | 326 | – |
| COC(=O)C[C@]12CCC(C)(C)C[C@H]1[C@H]1C(=O)C=C3[C@@]4(C)C=C(C#N)C(=O)C(C)(C)[C@@H]4CC[C@@]3(C)[C@]1(C)CC2 [LX-2307] | 15.4 | – | – | – | 4.8 | – | – | 271 | 279 | – |
| CCCCC/C=C\C/C=C\C/C=C\C/C=C\CCCC(=O)O [LX-2701, Arachidonic acid] | 103 | 76.8 | 48.3 | 97.3 | 102 | 97.1 | 93.8 | – | – | activity at 90 µM (HMGN1 [1]; [4]): 194%; viability at 90 µM [2, 7]: 29.4%; viability at 90 µM (A549; [11]): 42.9%; activity at 90 µM (HMGN1 [3]; [12]): 179% |
| CCCC[C@H]1Cc2c([nH]c3ccccc23)[C@H](c2ccc(NC3CCC3)cc2)N1C(=O)C#C[Si](C)(C)C [LX-422] | – | – | – | – | – | – | – | – | – | activity at 30 µM (HMGN1 [1]): 294%; viability at 1.1 µM [2]: 1.8%; viability at 1.1 µM (A549; A549, read-out: Survival (%)): 4.8%; activity at 30 µM (HMGN1 [3]; [15]): 336% |
| CC1(CCO)CC2(CCC(C(C)(C)C)CC2)OO1 (centres unmarked) [LX-603] | 91.7 | 51.6 | 16.8 | 74.1 | 94.1 | 53.6 | 17.5 | 263 | 332 | – |
| Nc1cccc2c1CN(C1CCC(=O)NC1=O)C2=O (centres unmarked) [LX-3207, Lenalidomide, reference compound] | 99.3 | 56.4 | 17.9 | 91.9 | 101 | 76.4 | 18.9 | 219 | 222 | – |
| O=C(O)CCCCC(CCSCc1ccccc1)SCc1ccccc1 (centres unmarked) [LX-3109, Devimistat, reference compound] | 97.2 | 88.7 | 74 | 96 | 108 | 85.7 | 68.2 | – | – | activity at 270 µM (HMGN1 [1]; 270 μM test compound, doxorubicin-treated foreskin cells, DMSO = 100): 232%; viability at 90 µM [2, 7]: 48.7%; viability at 270 µM ([2]; 270 μM test compound, doxorubicin-induced senescent foreskin cells, CellTiter-Glo, 0 μM = 100): 19.7%; viability at 90 µM (A549; [11]): 43.4%; viability at 270 µM (A549; A549, doxorubicin-induced senescent A549 cancer cells, 270 μM test compound, CellTiter-Glo, read-out: Survival (%)): 0.1%; activity at 270 µM (HMGN1 [3]; A549, doxorubicin-induced senescent A549 cells, test compound 270 μM, ELISA, DMSO = 100, read-out: HMGN1 (amount of HMGN1 secreted in the cell culture)): 247% |
| COc1nc(-c2cccnc2)nc2c1CC[C@H]1[C@H](C)C(=O)C(C#N)=C[C@]21C [LX-2315] | 75.2 | – | – | 2.9 | 98.2 | 39.2 | – | 235 | 247 | – |
| Cc1onc(C(=O)N2CCN(C(c3ccc(Cl)cc3)c3ccc(OCc4cn(CCOCCNc5cccc6c5C(=O)N(C5CCC(=O)NC5=O)C6=O)nn4)cc3)CC2)c1[N+](=O)[O-] (centres unmarked) [LX-431, 4-((2-(2-(4-((4-((4-chlorophenyl)(4-(5-methyl-4-nitroisooxazol-3-carbonyl)piperazin-1-yl)methyl)phenoxy)methyl)-1H-1,2,3-triazol-1-yl)ethoxy)ethyl)amino)-2-(2,6-dioxopiperidin-3-yl)isoindolin-1,3-dione] | 89.5 | – | – | 12.6 | 94.6 | – | – | 312 | 283 | – |
| C[C@H](N)C(=O)N1C[C@H](CCCB(O)O)[C@](N)(C(=O)O)C1 [LX-3107] | 87.7 | 74.2 | 33.4 | 83.4 | 96.5 | 77.8 | 4.4 | 196 | 267 | – |
| O=C1C(O)=C([C@H]2CC[C@H](c3ccc(Cl)cc3)CC2)C(=O)c2ccccc21 [LX-2802, Atovaquone, reference compound] | 102 | 58.4 | 17.2 | 81.2 | 101 | 74.1 | 35.7 | 268 | 279 | – |
| O=C(NCc1ccncc1)C12CC3CC(C1)CC(c1ccc(Cl)cc1)(C3)C2 [LX-3106, Opaganib, reference compound] | 97.7 | 82.5 | 59.7 | 87.4 | 108 | 91.7 | 76.8 | – | – | activity at 90 µM (HMGN1 [1]; [4]): 254%; viability at 90 µM [2, 7]: 9.8%; viability at 90 µM (A549; [11]): 4.7%; activity at 90 µM (HMGN1 [3]; [12]): 236% |
| CC1(C)CC[C@]2(C(=O)NCC(F)(F)F)CC[C@]3(C)[C@H](C(=O)C[C@@H]4[C@@]5(C)C=C(C#N)C(=O)C(C)(C)[C@@H]5CC[C@]43C)[C@@H]2C1 [LX-2302, Dihydro-CDDO-Trifluoroethyl Amide] | 48.9 | – | – | 6.3 | 95.9 | 5.4 | – | 279 | 313 | – |
| CC1(C)CC[C@]2(C(=O)NO)CC[C@]3(C)[C@H](C(=O)C=C4[C@@]5(C)C=C(C#N)C(=O)C(C)(C)[C@@H]5CC[C@]43C)[C@@H]2C1 [LX-2309] | 69.7 | – | – | 2.7 | 112 | 14.9 | – | 307 | 322 | – |
| Cc1onc(C(=O)N2CCN(C(c3ccc(Cl)cc3)c3ccc(OCc4cn(CCNc5cccc6c5C(=O)N(C5CCC(=O)NC5=O)C6=O)nn4)cc3)CC2)c1[N+](=O)[O-] (centres unmarked) [LX-437, 4-((2-(4-((4-((4-chlorophenyl)(4-(5-methyl-4-nitroisooxazol-3-carbonyl)piperazin-1-yl)methyl)phenoxy)methyl)-1H-1,2,3-triazol-1-yl)ethyl)amino)-2-(2,6-dioxopiperidin-3-yl)isoindolin-1,3-dione] | 86.2 | – | – | 10.9 | 93.6 | – | – | 309 | 301 | – |
| CCC[C@H]1C(=O)C(C#N)=C[C@@]2(C)c3nc(-c4ccnc5ccccc45)nc(-c4ccccc4F)c3CC[C@H]12 [LX-2502] | 49.6 | – | – | 13.4 | 97.2 | 5.9 | – | 258 | 297 | – |
| C=C1C(=O)C2CCN1CC2 [LX-702, 2-Methylene-3-quinuclidinone] | – | – | – | – | – | – | – | – | – | activity at 30 µM (HMGN1 [1]): 278%; viability at 1.1 µM [2]: 82.1%; viability at 10 µM [2]: 6.5%; viability at 1.1 µM (A549; A549, read-out: Survival (%)): 87.3%; viability at 10 µM (A549; A549, read-out: Survival (%)): 33.4%; viability at 30 µM (A549; A549, read-out: Survival (%)): 3%; activity at 30 µM (HMGN1 [3]; [15]): 305% |
